Measured values from ChEMBL document CHEMBL1201862, “PubChem BioAssay data set” (2004).
Several values for one entry are separate records, joined by “and”; a condition that tells them apart may be missing. Equal values may be shown once. Activity calls are given as the source filed them.

Legend:
[1] = molecular target: NAD-dependent protein deacylase sirtuin-5, mitochondrial (Homo sapiens, UniProt Q9NXA8); assay: SIRT5 desuccinylase inhibitors, dose response, biochemical, fluorescence imaging, cherry-pick, set 5 (AID 720591);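 note: desuccinylation of succinyl peptide AMC substrate read as fluorescence after trypsin release; potency of inhibitors that lower fluorescence and may act on trypsin instead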
[2] = THP-1 cell cytotoxicity, dose response, cytotoxicity control for Vif-APOBEC3G degradation inhibitor project, THP-1 cells (AID 1117359); format: functional; settings: Human immunodeficiency virus 1, THP-1
[3] = Late stage assay provider results from the probe development effort to identify selective inhibitors of heat shock protein 90 (HSP90): Absorbance-based cell proliferation assay in MCF7 cells.; format: functional
[4] = Late stage assay provider results from the probe development effort to identify selective inhibitors of heat shock protein 90 (HSP90): Absorbance-based cell proliferation assay in SKBR3 cells.; format: functional; settings: SK-BR-3
[5] = CEM21 cell cytotoxicity, dose response, cytotoxicity control, plate reader, dry powder (AID 687026); format: functional, cell-based
[6] = HIV Env cell-cell fusion inhibitors, dose response, HIV entry, plate reader, dry powder (AID 687023); format: functional, cell-based
[7] = molecular target: Endoplasmic reticulum aminopeptidase 1 (Homo sapiens, UniProt Q9NZ08); assay: ERAP1 aminopeptidase inhibitors, dose response, biochemical, cherry-pick, set 2, plate reader (AID 743314)
[8] = Dose-response inhibition of insulin secretion in a rat insulinoma line at 5 mM glucose (AID 1117331); format: functional, cell-based; settings: INS-1E
Cytochrome P450 2C9 = Cytochrome P450 2C9 (Homo sapiens, UniProt P11712)
Transthyretin = Transthyretin (Homo sapiens, UniProt P02766); assay: Luminescence-based cell-based high throughput dose response assay to identify activators of Transthyretin (TTR) transcription.; format: functional
[9] = molecular target: T1, Heat shock factor protein 1 (Mus musculus, UniProt P38532); assay: inhibition of MG132-induced HSE-luciferase signal, confirmation, cell-based, NIH3T3, luminescence, dose retest (AID 2382); format: functional;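 note: NIH3T3 fibroblasts with HSF1-driven luciferase reporter stressed by proteasome inhibitor MG132; luminescence from HSF1-driven luciferase expression after 8 hours of MG132 stress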
T1 sequence (P38532 whole entry): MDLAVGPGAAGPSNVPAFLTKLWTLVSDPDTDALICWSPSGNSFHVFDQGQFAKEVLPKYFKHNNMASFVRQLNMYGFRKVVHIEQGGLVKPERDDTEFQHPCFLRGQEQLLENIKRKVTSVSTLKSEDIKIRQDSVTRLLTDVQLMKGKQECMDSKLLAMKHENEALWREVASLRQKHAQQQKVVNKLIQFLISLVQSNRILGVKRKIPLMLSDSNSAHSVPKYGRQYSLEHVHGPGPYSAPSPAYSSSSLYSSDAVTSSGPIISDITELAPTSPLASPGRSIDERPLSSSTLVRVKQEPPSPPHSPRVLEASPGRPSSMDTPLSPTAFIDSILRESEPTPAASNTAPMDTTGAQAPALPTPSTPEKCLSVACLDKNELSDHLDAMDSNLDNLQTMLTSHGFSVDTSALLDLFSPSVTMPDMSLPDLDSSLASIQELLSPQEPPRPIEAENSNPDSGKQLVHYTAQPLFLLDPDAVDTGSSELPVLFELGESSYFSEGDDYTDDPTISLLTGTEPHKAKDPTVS

[10] = molecular target: Neurotensin receptor type 1 (Homo sapiens, UniProt P30989); format: functional;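 note: Image-based confirmatory dose-response assay measuring agonist activity at NTR1; NTR1-expressing U2OS osteosarcoma cells imaged for beta-arrestin GFP spot formation; agonist potency where compounds increase beta-arrestin recruitment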
[11] = molecular target: COUP transcription factor 2 (Homo sapiens, UniProt P24468); assay: Luminescence-based cell-based high throughput dose response assay to identify inhibitors of COUP-TFII (NR2F2).; format: functional;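 note: HEK293 cells transiently cotransfected with COUP-TFII expression vector and reporter; luciferase reporter luminescence driven by COUP-TFII from the pX2-168 reporter plasmid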
[12] = Shn3 3'UTR reporter inhibitors, dose response, cell-based, Clone20 osteoblasts, firefly luciferase, cherry-picked (AID 624132); format: functional;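 note: firefly luciferase luminescence from reporter carrying the Shn3 3'UTR in osteoblasts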
[13] = inhibitors of control Renilla luciferase reporter, dose response, counter-screen for Shn3 3'UTR targeting project, Clone20-Shn3RL cells, dual-Glo, cherry-pick, set 2 (AID 720724); format: functional, cell-based; settings: Dual-Go Shn3RL
[14] = reduction of Shn3 3'UTR firefly luciferase signal, dose response, Schnurri-3 inhibitor project, cell-based, Clone20 osteoblasts, cherry-pick, set 2 (AID 720490); format: functional;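 note: actives lower the luminescence signal as inhibitors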
[15] = inhibitors of HIV Env-driven cell fusion, dose response, cherry-pick (AID 652057); format: functional, cell-based
[16] = Luminescence-based dose response cell-based high throughput screening assay for cytotoxic compounds using the IEC-6 intestinal epithelial cell line. [Related pubchem assays: 1858 (Summary AID.), 1825 (Counterscreen.), 1907 (Confirmation screen.)]; format: functional
HEK293 [17] = assay: cells; settings: Homo sapiens
[18] = CEM21 lymphoblast cell cytotoxicity, dose response, cytotoxicity control for viral fusion inhibitor project, CellTiter-Glo luminescence, cherry-picked (AID 652042); format: functional, cell-based;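 note: potency for signal decrease meaning cytotoxicity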
[19] = inhibitors of clade B AD8 Env fusion, dose response, cell-based, cherry-pick (AID 652062); format: functional;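 note: luciferase signal from cell-cell fusion driven by HIV-1 clade B AD8 Env; potency is for inhibitors of fusion seen as a drop in luminescence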
[20] = microbe, parasite or virus in culture; format: functional; settings: Mycobacterium tuberculosis
[21] = off-target signal loss in HeLa-CEM21 co-culture – HeLa F-luc CTL cells, cherry-picked, counter-screen for HIV-1 Env fusion inhibitor project, dose response (AID 652040); format: functional, cell-based;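 note: potency for signal decrease marking cytotoxic or nonspecific inhibition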
[22] = molecular target: RNA-editing ligase 1, mitochondrial (Trypanosoma brucei brucei, UniProt P86926); assay: TbREL1 ligase inhibitors, dose response, biochemical, fluorescence, Trypanosoma brucei (AID 1117295); format: functional
HEK293 [23] = assay: cells; settings: Homo sapiens; remark: listed apart in the source
[24] = ZM109 Env clade C HIV-1 fusion inhibitors, dose response, HeLa effector, CEM target cells, luciferase, cherry-pick (AID 652058); format: functional, cell-based
[25] = molecular target: Metabotropic glutamate receptor 5 (Rattus norvegicus, UniProt P31424); assay: Identification of a glycine sulfonamide based non-MPEP site positive allosteric potentiator (PAM) of mGlu5 (calcium_assay).; format: functional
[26] = cytotoxicity in A549 cells, dose response, cytotoxicity control, cell-based, CellTiter-Glo luminescence, cherry-pick (AID 743484); format: functional
[27] = molecular target: T2, Disintegrin and metalloproteinase domain-containing protein 17 (Homo sapiens, UniProt P78536); assay: exosite inhibitors of ADAM17, dose response, biochemical (AID 743260)
[28] = ADAM10 protease inhibitors, dose response, selectivity assay for ADAM17 exosite inhibitor project, biochemical, FRET peptide substrate, recombinant human ADAM10 (AID 743259);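 note: ADAM10 enzyme cleaving a FRET peptide substrate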
[29] = NIH:OVCAR-3 ovarian cancer cell cytotoxicity, dose response, PAX8 inhibitor project, plate reader, dry powder samples (AID 743044); format: functional, cell-based
[30] = IGROV1 ovarian cancer cell cytotoxicity, dose response, PAX8 inhibitor project, plate reader, dry powder samples (AID 743043); format: functional, cell-based; settings: IGROV-1
Paired box protein Pax-8 = Paired box protein Pax-8 (Homo sapiens, UniProt Q06710); assay: inhibitors of PAX8-driven TPO luciferase reporter, dose response, RMG-I cells, cherry-pick (AID 687027); format: functional, cell-based;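 note: luciferase reporter driven by Pax8 target thyroperoxidase promoter measured by SteadyGlo luminescence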
[31] = cytotoxicity in OVCAR8 ovarian cancer cells, dose response, PAX8 project, cell-based, plate reader, dry powder samples (AID 743197); format: functional; settings: OVCAR-8
[32] = molecular target: 1-phosphatidylinositol 4,5-bisphosphate phosphodiesterase gamma-1 (Homo sapiens, UniProt P19174); assay: Counterscreen for inhibitors of phospholipase C isozymes (PLC-B3): Fluorescence-based biochemical high throughput dose response assay to identify inhibitors of phospholipase C isozymes (PLC-gamma1).
[33] = molecular target: T3, Histone-lysine N-methyltransferase NSD2 (Homo sapiens, UniProt O96028); format: biochemical
T3 sequence (O96028 whole entry): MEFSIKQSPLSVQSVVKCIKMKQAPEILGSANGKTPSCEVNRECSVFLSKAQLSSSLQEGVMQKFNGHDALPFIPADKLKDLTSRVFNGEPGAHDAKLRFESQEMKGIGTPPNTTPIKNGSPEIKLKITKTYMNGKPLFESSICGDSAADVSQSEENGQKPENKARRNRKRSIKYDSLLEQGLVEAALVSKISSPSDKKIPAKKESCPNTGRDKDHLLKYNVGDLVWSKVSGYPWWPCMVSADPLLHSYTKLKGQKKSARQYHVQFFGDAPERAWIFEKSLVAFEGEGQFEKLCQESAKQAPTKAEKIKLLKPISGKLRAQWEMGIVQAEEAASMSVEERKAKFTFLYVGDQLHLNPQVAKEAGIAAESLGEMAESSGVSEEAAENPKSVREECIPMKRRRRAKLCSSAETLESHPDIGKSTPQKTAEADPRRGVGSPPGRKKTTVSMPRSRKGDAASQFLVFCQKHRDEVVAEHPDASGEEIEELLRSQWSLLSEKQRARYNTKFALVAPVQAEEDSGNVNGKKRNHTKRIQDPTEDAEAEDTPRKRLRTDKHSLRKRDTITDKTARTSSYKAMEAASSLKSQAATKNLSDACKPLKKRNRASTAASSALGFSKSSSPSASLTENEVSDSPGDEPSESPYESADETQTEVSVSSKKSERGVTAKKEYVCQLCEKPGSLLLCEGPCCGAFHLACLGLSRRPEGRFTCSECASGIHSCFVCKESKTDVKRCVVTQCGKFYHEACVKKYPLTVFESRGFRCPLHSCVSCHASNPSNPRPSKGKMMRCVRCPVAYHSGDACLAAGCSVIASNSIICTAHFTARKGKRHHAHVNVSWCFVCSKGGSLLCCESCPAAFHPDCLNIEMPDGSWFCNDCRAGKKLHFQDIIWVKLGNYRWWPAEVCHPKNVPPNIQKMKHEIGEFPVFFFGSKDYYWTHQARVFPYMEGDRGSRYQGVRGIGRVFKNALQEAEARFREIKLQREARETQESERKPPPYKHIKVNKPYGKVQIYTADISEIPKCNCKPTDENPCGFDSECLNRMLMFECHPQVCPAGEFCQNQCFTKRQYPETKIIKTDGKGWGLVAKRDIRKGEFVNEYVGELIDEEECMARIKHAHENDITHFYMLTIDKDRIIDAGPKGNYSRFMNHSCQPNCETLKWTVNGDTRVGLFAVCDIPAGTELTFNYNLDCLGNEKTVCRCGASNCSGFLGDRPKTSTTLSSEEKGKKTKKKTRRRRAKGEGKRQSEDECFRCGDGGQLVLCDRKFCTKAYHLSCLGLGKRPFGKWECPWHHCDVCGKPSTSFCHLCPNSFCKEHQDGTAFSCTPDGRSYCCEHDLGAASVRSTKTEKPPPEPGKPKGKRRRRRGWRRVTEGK

[34] = molecular target: 1-phosphatidylinositol 4,5-bisphosphate phosphodiesterase beta-3 (Homo sapiens, UniProt Q01970); assay: Fluorescence-based biochemical high throughput dose response assay to identify inhibitors of phospholipase C isozymes (PLC-B3).
[35] = ADAM10 inhibitors, peptide cleavage, dose response, biochemical, QFRET (AID 743254);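 note: ADAM10 enzyme with the DM2 quenched FRET peptide as substrate; EDANS fluorescence gain as the protease cuts the substrate; inhibitor potency against ADAM10 proteolytic activity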
[36] = molecular target: T2, Disintegrin and metalloproteinase domain-containing protein 17; assay: ADAM17 protease inhibitors, dose response, counter-screen for ADAM10 exosite inhibitor project, biochemical, quenched FRET substrate (AID 743253)

T2 sequence (P78536 whole entry, the tested form may be a part): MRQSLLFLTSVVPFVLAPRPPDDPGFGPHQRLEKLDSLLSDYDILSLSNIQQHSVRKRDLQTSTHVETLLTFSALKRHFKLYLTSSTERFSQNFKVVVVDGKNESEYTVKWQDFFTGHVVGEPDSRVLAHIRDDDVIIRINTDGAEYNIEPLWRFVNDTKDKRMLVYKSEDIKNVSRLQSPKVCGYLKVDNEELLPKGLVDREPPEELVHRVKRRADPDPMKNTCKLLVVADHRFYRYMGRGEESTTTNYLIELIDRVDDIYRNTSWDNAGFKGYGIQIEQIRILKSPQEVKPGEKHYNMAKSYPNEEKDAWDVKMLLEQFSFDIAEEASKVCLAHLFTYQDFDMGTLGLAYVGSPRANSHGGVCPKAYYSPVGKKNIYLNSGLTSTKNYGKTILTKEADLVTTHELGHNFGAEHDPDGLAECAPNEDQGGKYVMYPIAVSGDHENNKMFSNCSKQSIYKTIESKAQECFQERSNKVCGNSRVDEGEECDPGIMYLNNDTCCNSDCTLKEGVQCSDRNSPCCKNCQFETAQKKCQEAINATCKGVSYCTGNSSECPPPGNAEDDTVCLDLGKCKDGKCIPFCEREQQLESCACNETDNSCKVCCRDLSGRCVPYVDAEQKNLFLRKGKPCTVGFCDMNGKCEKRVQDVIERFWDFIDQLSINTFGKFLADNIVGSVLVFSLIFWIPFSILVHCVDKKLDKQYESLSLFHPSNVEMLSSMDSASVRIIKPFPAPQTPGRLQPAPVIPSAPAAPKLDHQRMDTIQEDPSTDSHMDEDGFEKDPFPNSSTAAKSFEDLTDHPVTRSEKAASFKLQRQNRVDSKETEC
Neurotensin receptor type 1, sequence (P30989 whole entry): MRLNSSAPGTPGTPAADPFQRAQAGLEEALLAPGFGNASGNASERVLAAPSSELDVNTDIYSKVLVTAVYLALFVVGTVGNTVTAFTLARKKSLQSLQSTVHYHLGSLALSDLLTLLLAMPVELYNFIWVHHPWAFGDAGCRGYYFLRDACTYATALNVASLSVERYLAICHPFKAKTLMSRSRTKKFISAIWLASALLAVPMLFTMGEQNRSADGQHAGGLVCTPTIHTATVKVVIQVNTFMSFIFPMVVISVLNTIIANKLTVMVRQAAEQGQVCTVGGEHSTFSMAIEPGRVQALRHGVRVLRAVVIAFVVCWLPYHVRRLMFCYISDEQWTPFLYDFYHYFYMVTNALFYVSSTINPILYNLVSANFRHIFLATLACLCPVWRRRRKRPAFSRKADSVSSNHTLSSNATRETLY
Paired box protein Pax-8, sequence (Q06710 whole entry): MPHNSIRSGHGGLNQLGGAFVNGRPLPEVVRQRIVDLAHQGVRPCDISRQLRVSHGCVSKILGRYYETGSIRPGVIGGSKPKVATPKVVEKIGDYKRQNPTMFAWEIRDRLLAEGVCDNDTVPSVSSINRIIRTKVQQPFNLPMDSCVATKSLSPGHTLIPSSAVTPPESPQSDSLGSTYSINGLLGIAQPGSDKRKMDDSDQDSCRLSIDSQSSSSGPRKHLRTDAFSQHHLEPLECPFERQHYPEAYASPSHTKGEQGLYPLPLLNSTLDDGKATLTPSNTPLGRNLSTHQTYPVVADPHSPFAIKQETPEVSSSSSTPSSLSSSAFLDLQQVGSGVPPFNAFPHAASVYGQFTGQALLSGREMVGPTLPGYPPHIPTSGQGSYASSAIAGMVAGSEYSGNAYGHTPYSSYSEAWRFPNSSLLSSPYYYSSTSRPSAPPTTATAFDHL
NAD-dependent protein deacylase sirtuin-5, mitochondrial, sequence (Q9NXA8 whole entry): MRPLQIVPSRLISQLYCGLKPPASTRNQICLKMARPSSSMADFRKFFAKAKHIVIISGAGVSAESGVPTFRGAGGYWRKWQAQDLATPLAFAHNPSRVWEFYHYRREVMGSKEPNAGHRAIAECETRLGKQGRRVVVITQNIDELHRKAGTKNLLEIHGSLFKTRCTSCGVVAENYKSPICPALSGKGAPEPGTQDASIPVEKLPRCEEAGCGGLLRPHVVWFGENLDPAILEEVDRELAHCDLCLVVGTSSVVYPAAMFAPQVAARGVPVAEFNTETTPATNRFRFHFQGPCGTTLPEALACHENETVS
RNA-editing ligase 1, mitochondrial, sequence (P86926 whole entry): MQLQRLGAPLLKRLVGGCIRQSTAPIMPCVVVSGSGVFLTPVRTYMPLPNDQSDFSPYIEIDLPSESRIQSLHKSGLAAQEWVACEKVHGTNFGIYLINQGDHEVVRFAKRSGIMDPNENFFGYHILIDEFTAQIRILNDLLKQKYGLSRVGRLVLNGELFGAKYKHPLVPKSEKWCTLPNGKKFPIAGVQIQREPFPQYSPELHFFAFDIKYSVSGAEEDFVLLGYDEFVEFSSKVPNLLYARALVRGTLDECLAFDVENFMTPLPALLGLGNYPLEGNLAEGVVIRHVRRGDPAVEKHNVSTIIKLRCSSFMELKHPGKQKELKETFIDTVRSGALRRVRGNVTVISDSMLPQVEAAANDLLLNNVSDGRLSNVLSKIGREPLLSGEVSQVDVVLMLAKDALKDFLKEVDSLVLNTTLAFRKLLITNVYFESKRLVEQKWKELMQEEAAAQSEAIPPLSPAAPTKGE
1-phosphatidylinositol 4,5-bisphosphate phosphodiesterase gamma-1, sequence (P19174 whole entry): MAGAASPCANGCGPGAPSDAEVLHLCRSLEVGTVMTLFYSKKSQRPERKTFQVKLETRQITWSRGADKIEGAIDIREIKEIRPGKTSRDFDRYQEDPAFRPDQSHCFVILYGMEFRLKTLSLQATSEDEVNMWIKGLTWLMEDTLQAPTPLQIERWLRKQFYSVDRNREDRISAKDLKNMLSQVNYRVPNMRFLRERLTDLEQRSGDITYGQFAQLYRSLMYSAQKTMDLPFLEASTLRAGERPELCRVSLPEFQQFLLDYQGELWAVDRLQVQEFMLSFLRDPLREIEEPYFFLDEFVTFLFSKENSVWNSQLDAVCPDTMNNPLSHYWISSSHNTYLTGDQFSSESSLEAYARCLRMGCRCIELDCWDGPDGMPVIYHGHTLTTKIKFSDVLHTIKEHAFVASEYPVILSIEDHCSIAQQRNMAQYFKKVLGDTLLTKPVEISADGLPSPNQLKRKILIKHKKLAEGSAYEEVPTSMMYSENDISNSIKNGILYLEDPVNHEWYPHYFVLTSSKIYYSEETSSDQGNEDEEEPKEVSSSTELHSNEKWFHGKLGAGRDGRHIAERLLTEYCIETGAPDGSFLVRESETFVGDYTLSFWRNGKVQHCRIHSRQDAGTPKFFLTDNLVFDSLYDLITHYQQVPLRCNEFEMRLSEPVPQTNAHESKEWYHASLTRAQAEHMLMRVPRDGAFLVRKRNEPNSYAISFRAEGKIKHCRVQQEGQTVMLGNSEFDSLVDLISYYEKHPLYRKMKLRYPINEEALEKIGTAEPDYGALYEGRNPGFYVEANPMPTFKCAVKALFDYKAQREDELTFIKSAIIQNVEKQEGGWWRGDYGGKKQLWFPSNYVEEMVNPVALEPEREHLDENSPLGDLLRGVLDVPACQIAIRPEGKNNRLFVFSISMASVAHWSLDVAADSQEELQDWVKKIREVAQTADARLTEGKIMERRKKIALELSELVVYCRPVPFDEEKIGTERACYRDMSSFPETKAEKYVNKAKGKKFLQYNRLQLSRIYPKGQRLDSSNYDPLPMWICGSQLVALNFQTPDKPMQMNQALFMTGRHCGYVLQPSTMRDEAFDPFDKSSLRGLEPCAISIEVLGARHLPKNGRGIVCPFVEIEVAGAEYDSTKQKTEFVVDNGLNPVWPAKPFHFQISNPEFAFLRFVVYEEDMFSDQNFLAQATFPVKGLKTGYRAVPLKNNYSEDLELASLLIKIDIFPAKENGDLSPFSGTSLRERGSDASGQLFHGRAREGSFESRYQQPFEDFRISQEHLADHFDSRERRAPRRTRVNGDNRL
Cytochrome P450 2C9, sequence (P11712 whole entry): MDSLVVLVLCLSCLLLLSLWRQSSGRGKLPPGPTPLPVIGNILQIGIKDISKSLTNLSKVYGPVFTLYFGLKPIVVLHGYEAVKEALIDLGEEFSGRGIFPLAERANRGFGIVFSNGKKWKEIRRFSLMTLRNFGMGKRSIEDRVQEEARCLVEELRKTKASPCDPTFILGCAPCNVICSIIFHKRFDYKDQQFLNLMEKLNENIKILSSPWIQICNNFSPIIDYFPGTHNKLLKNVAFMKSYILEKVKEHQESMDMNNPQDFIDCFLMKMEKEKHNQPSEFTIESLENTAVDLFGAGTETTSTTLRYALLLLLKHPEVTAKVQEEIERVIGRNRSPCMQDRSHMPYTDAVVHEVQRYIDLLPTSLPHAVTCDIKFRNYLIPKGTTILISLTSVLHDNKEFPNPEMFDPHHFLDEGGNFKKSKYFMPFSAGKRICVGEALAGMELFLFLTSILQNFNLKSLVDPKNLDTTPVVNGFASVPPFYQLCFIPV
COUP transcription factor 2, sequence (P24468 whole entry): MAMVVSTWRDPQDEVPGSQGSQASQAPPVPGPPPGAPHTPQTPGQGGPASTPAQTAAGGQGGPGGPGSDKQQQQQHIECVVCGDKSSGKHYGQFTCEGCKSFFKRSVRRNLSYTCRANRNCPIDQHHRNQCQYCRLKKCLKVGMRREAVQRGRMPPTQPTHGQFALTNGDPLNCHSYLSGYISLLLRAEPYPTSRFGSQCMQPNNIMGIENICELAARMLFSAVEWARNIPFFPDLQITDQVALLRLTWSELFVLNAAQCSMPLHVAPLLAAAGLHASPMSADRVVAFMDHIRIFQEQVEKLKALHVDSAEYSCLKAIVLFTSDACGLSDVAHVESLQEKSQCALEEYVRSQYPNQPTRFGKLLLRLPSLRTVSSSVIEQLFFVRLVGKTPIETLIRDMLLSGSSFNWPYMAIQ

Structure (SMILES): CCOC(=O)C1(CCOC)CCN(Cc2cnc(-c3cccc(C)c3)nc2)CC1
- AC50 [1]: > 30 µM (inactive)
- CC50 [2]: > 40 µM (active)

Structure (SMILES): COC(=O)CCCCOc1ccc2cc(Br)c(=O)oc2c1
- IC50 [3]: > 100 µM (inactive)
- IC50 [4]: > 100 µM (inactive)

Structure (SMILES): CCCOc1ccc(S(=O)(=O)NCc2cccnc2)cc1
- AC50 [5]: > 70 µM (inactive)
- AC50 [6]: 13.1 µM (active) and 17.6 µM (active)

Structure (SMILES): COc1ccc2c3c([nH]c2c1)[C@H](CO)N(Cc1cc(F)ccc1F)CC31CN(C)C1
- AC50 [7]: 6.53 µM (active)

Structure (SMILES): COc1ccccc1N1CCN(CCCCNC(=O)c2ccc(-c3ccc(C(C)=O)cc3)cc2)CC1
- IC50 [8]: > 33.3 µM (inactive)
- AC50 (Cytochrome P450 2C9): inconclusive

Structure (SMILES): COc1ccc([C@@H]2CC=C(C(=O)O)[C@H](c3ccccc3F)N2S(=O)(=O)c2ccccc2C)cc1
- EC50 (Transthyretin): > 167 µM (inactive)

Structure (SMILES): CCOC(=O)c1c(C)[nH]c(C(=O)OCC(=O)Nc2sccc2C(N)=O)c1C
- EC50 [9]: > 195 µM (not active)
- EC50 [10]: 3.35 µM (active)
- IC50 [11]: 8.54 µM (active)

Structure (SMILES): Cc1ccc(CNC(=O)CSc2c3c(nc4ccc(Cl)cc24)CCCC3)o1
- AC50 [12]: 5.98 µM (active)
- AC50 [13]: 37.6 µM (active)
- AC50 [14]: 10.7 µM (active)

Structure (SMILES): CC(C)Cc1ccc(C(C)C(=N)NCCc2ccccc2)cc1 (stereo not given)
- AC50 [15]: 2.78 µM (active)
- IC50 [16]: 3.3 µM (active)
- EC50 (HEK293 [17]): > 59.7 µM (inactive)
- AC50 [18]: 14.3 µM (active)
- AC50 [19]: 21.6 µM (active)
- CC50 [20]: 12.1 µM (active)
- AC50 [21]: 7.77 µM (active)
- IC50 [22]: > 96.6 µM (inactive)
- EC50 (HEK293 [23]): > 59.7 µM (inactive)
- AC50 [24]: 4.62 µM (active)

Structure (SMILES): CC(C)N(CC(=O)Nc1ccccc1)S(C)(=O)=O
- EC50 [25]: 10 µM (inconclusive)

Structure (SMILES): CSc1nc(N)nc(SC2C=CCCC2)c1C#N (stereo not given)
- AC50 [26]: > 52 µM (inactive)

Structure (SMILES): O=C(C[C@H]1C/C=C\CC[C@@H](Cc2ccc(F)cc2)C(=O)O[C@@H](c2ccccc2)CNC1=O)N[C@H](CO)Cc1ccccc1
- IC50 [27]: > 69.5 µM (inactive)
- IC50 [28]: > 69.5 µM (inactive)

Structure (SMILES): C[C@@H]1CN([C@H](C)CO)C(=O)c2cc(NS(=O)(=O)c3ccc(Cl)cc3)ccc2O[C@@H](C)CCCCO[C@H]1CN(C)C(=O)Nc1ccc(C(F)(F)F)cc1
- AC50 [29]: 17.9 µM (active)
- AC50 [30]: 35.2 µM (active)
- AC50 (Paired box protein Pax-8): 2.86 µM (active)
- AC50 [31]: 29.6 µM (active)

Structure (SMILES): O=C(CCCN1C(=O)/C(=C/c2ccco2)SC1=S)Nc1cccc(C(=O)O)c1
- IC50 [32]: > 122 µM (inactive)
- AC50 [33]: > 20 µM (inactive)
- IC50 [34]: > 122 µM (inactive)

Structure (SMILES): CC(=NNC(=O)CSc1nnc(-c2ccc(C(C)(C)C)cc2)n1-c1ccccc1)c1cccc2ccccc12
- IC50 [27]: > 69.5 µM (inactive)
- IC50 [35]: > 69.5 µM (inactive)
- IC50 [36]: > 69.5 µM (inactive)
